Results from ChEMBL document CHEMBL3217581, “Synthesis and selective inhibition of human monoamine oxidases of a large scaffold of (4,5-substituted-thiazol-2-yl)hydrazones” (Medchemcomm, 2010).

Key:
[1] = molecular target: T1, Amine oxidase [flavin-containing] A (Homo sapiens, UniProt P21397); experiment: Inhibition of human MAO-A expressed in baculovirus infected BTI-TN-5B1-4 insect cells using p-tyramine as substrate assessed as hydrogen peroxide production by fluorimetric method
T1 sequence (P21397 whole entry): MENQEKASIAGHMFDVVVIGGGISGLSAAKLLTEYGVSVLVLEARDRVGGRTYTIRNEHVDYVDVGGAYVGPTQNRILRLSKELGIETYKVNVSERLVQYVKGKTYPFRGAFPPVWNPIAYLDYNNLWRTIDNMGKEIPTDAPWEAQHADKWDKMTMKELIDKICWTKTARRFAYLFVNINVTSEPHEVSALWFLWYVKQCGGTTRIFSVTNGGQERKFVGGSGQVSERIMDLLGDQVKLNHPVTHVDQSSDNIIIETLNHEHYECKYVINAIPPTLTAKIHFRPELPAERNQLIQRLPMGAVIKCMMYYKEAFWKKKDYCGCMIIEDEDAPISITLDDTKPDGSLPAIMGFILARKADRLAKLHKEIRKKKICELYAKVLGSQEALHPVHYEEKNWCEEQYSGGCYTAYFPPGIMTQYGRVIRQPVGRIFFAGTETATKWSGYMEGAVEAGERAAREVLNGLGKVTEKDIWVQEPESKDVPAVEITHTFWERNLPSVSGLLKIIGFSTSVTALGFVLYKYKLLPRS

[2] = molecular target: T2, Amine oxidase [flavin-containing] B (Homo sapiens, UniProt P27338); experiment: biochemical; format: cell-based, BTI-TN-5B1-4
T2 sequence (P27338 whole entry): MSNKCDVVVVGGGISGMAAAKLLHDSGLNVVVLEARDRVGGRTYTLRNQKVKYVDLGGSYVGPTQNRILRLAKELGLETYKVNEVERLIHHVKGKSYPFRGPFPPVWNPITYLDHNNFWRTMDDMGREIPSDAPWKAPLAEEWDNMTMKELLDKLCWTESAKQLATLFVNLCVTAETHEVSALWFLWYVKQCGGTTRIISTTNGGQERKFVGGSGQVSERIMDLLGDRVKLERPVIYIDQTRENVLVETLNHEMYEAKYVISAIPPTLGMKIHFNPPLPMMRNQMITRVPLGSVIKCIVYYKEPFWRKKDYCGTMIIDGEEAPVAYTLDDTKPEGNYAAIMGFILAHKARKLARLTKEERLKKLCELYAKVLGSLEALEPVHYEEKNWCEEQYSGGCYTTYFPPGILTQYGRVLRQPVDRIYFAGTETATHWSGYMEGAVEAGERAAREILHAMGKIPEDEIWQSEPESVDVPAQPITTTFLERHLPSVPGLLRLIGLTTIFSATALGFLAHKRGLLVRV
Description: Inhibition of human MAO-B expressed in baculovirus infected BTI-TN-5B1-4 insect cells using p-tyramine as substrate assessed as hydrogen peroxide production by fluorimetric method

Homo sapiens = species: Homo sapiens; experiment: Selectivity index, ratio of IC50 for human MAO-B to IC50 for human MAO-A
[3] = molecular target: T2, Amine oxidase [flavin-containing] B; experiment: Inhibition of human MAO-B expressed in baculovirus infected BTI-TN-5B1-4 insect cells using p-tyramine as substrate assessed as hydrogen peroxide production at 100 uM by fluorimetric method; conditions: BTI-TN-5B1-4, human
[4] = molecular target: T1, Amine oxidase [flavin-containing] A; experiment: Inhibition of human MAO-A expressed in baculovirus infected BTI-TN-5B1-4 insect cells using p-tyramine as substrate assessed as hydrogen peroxide production at 100 uM by fluorimetric method; conditions: BTI-TN-5B1-4, human

## C/C(=N\Nc1nc(-c2ccccc2)c(C)s1)C1CCCCC1
[1]
  IC50: 7.65 µM
[2]
  IC50: 6.14 µM
Homo sapiens
  Ratio IC50: 0.83

## Cc1sc(NN=C2CCCC2)nc1-c1ccccc1
[1]
  IC50: 0.55 µM
[2]
  IC50: 1.41 µM
Homo sapiens
  Ratio IC50: 2.56

## Cc1sc(N/N=C2\CCC(C)C2)nc1-c1ccccc1 (stereo unspecified)
[1]
  IC50: 2.29 µM
[2]
  IC50: 2.31 µM
Homo sapiens
  Ratio IC50: 1.01

## Cc1sc(N/N=C2\CCCCC2C)nc1-c1ccccc1 (stereo unspecified)
[1]
  IC50: 3.23 µM
[2]
  IC50: 1.11 µM
Homo sapiens
  Ratio IC50: 0.34

## CCCC/C(CC)=N\Nc1nc(-c2ccc3ccccc3c2)cs1
[1]
  IC50: 2.93 µM
[2]
  IC50: 3.76 µM
Homo sapiens
  Ratio IC50: 1.28

## C/C(=N\Nc1nc(-c2ccccc2)c(C)s1)c1ccccn1
[1]
  IC50: 2.39 µM
[2]
  IC50: 0.88 µM
Homo sapiens
  Ratio IC50: 0.37

## C(=N\Nc1nc(-c2ccc3ccccc3c2)cs1)/c1cccc2ccccc12
[1]
  IC50: 16.4 µM
[2]
  IC50: 22.9 µM
Homo sapiens
  Ratio IC50: 1.41

## Cc1sc(N/N=C/c2ccncc2)nc1-c1ccccc1
[1]
  IC50: 8.29 µM
[2]
  IC50: 1.37 µM
Homo sapiens
  Ratio IC50: 0.16

## C(=N\Nc1nc(-c2ccc3ccccc3c2)cs1)/c1ccc2c(c1)OCO2
[1]
  IC50: 5.92 µM
Homo sapiens
  Ratio IC50: > 16.7
[3]
  inhibition at 100 µM: 40%

## Cc1sc(N/N=C/c2cccc3ccccc23)nc1-c1ccccc1
[4]
  inhibition at 100 µM: 40%
[3]
  inhibition at 100 µM: 40%

## Cc1sc(N/N=C/c2ccc3c(c2)OCO3)nc1-c1ccccc1
[1]
  IC50: 8.63 µM
[2]
  IC50: 6.57 µM
Homo sapiens
  Ratio IC50: 0.76

## C/C(CC(C)C)=N/Nc1nc(-c2ccc3ccccc3c2)cs1
[1]
  IC50: 2.31 µM
[2]
  IC50: 3.56 µM
Homo sapiens
  Ratio IC50: 1.54

## Cc1sc(N/N=C2\CCCC2C)nc1-c1ccccc1 (stereo unspecified)
[1]
  IC50: 2.44 µM
[2]
  IC50: 1.33 µM
Homo sapiens
  Ratio IC50: 0.56

## Cc1sc(N/N=C2\CCCC(C)C2)nc1-c1ccccc1 (stereo unspecified)
[1]
  IC50: 3.63 µM
[2]
  IC50: 2.88 µM
Homo sapiens
  Ratio IC50: 0.76

## CCCCC/C(C)=N\Nc1nc(-c2ccccc2)c(C)s1
[1]
  IC50: 3.69 µM
[2]
  IC50: 6 µM
Homo sapiens
  Ratio IC50: 1.64

## CC(C)=NNc1nc(-c2ccc3ccccc3c2)cs1
[1]
  IC50: 1.56 µM
[2]
  IC50: 3.55 µM
Homo sapiens
  Ratio IC50: 2.27

## C/C(=N\Nc1nc(-c2ccccc2)c(C)s1)c1ccccc1
[1]
  IC50: 2.24 µM
[2]
  IC50: 2.23 µM
Homo sapiens
  Ratio IC50: 1

## C(=N\Nc1nc(-c2ccc3ccccc3c2)cs1)/c1ccco1
[1]
  IC50: 2.04 µM
[2]
  IC50: 2.76 µM
Homo sapiens
  Ratio IC50: 1.35

## C/C(=N\Nc1nc(-c2ccccc2)c(C)s1)c1cc2ccccc2oc1=O
[1]
  IC50: 9.18 µM
[2]
  IC50: 3.02 µM
Homo sapiens
  Ratio IC50: 0.33

## CCCC/C(CC)=N\Nc1nc(-c2ccccc2)c(C)s1
[1]
  IC50: 4.13 µM
[2]
  IC50: 4.78 µM
Homo sapiens
  Ratio IC50: 1.16

## Cc1sc(NN=C2CCCCC2)nc1-c1ccccc1
[1]
  IC50: 1.78 µM
[2]
  IC50: 1.79 µM
Homo sapiens
  Ratio IC50: 1.01

## Cc1sc(N/N=C/c2c[nH]c3ccccc23)nc1-c1ccccc1
[1]
  IC50: 3.12 µM
[2]
  IC50: 1.4 µM
Homo sapiens
  Ratio IC50: 0.45

## CCC/C(C)=N\Nc1nc(-c2ccccc2)c(C)s1
[1]
  IC50: 2.52 µM
[2]
  IC50: 2.31 µM
Homo sapiens
  Ratio IC50: 0.9

## Cc1sc(N/N=C/c2ccco2)nc1-c1ccccc1
[1]
  IC50: 1.79 µM
[2]
  IC50: 3.06 µM
Homo sapiens
  Ratio IC50: 1.72

## C/C(=N\Nc1nc(-c2ccc3ccccc3c2)cs1)c1cc2ccccc2oc1=O
[1]
  IC50: 6.47 µM
[2]
  IC50: 10.8 µM
Homo sapiens
  Ratio IC50: 1.67

## Cc1sc(NN=C2CCCCCC2)nc1-c1ccccc1
[1]
  IC50: 2.11 µM
[2]
  IC50: 1.96 µM
Homo sapiens
  Ratio IC50: 0.9

## CC1CCC/C(=N\Nc2nc(-c3ccc4ccccc4c3)cs2)C1 (stereo unspecified)
[1]
  IC50: 1.94 µM
[2]
  IC50: 10.8 µM
Homo sapiens
  Ratio IC50: 5.56

## C=CCC/C(C)=N\Nc1nc(-c2ccccc2)c(C)s1
[1]
  IC50: 6.97 µM
[2]
  IC50: 8.85 µM
Homo sapiens
  Ratio IC50: 1.27

## Cc1sc(NN=C2CCCCCCC2)nc1-c1ccccc1
[1]
  IC50: 7.07 µM
[2]
  IC50: 2.31 µM
Homo sapiens
  Ratio IC50: 0.32
